# Results from US7803769B2 (priority 2006, dated 2010).
# Bridge positions count the residues as written; N and C are the ends. Square brackets hold non-standard residues; d marks the D form. Peptide text beside a SMILES is read from it. 1Nal = N[C@@H](Cc1cccc2ccccc12)C(=O)O
# Legend:
# [1] = target: T1, human Kv1.3 (CHO) (Homo sapiens, UniProt P22001); assay: cell-based
# T1 construct: expressed in transfected cells
# [2] = target: T2, human Kv1.1 (HEK293) (Homo sapiens, UniProt Q09470); assay: cell-based
# T2 construct: expressed in transfected cells; host or cells: HEK293
# T2 sequence (Q09470 whole entry): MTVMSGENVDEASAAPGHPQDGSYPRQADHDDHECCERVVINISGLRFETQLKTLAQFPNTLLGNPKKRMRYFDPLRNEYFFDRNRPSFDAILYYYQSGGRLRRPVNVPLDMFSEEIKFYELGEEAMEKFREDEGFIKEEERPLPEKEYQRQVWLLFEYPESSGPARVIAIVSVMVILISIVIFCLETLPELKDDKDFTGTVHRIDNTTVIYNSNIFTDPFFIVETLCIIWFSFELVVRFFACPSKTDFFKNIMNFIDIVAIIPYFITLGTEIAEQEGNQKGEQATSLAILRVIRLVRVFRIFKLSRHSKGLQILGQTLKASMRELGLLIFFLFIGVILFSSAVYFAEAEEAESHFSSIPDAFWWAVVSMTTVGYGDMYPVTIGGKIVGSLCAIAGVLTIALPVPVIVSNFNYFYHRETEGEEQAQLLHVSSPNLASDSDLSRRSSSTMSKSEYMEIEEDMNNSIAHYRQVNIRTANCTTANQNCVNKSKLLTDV
# T1 sequence (P22001 whole entry): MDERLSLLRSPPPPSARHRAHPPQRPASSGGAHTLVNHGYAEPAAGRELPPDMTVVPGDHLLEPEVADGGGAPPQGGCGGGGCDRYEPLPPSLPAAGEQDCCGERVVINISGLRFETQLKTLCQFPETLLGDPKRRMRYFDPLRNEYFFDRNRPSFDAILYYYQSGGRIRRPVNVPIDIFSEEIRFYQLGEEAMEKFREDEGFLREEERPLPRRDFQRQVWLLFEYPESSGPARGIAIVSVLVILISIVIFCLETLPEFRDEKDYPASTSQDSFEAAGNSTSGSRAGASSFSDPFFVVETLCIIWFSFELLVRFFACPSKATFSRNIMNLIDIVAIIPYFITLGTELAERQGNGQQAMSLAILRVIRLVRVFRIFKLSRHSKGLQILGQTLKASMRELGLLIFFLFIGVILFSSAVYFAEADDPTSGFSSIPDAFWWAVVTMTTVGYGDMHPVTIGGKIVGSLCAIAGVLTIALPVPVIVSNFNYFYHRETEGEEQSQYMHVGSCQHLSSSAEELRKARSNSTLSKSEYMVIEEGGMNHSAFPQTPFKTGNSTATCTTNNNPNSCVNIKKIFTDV
SMILES,IC50 [1],IC50 [2]
"CC[C@H](C)[C@@H]1NC(=O)[C@H](CCCCN)NC(=O)[C@@H](NC(=O)[C@H](CCCCN)NC(=O)[C@@H](NC(=O)[C@H](CC(N)=O)NC(=O)[C@@H](NC(=O)[C@@H](NC(=O)[C@@H](NC(=O)CN)C(C)C)[C@@H](C)CC)[C@@H](C)CC)C(C)C)CSSC[C@@H]2NC(=O)[C@H](CCCCN)NC(=O)CNC(=O)[C@H](Cc3ccccc3)NC(=O)[C@H](CCCNC(=N)N)NC(=O)[C@H](CCSC)NC(=O)[C@H](Cc3cccc4ccccc34)NC(=O)[C@H](C)NC(=O)[C@H](CCCCN)NC(=O)[C@H](CCCCN)NC(=O)[C@@H]3CSSC[C@@H](C(=O)N[C@H](C(=O)N4CCC[C@H]4C(=O)N[C@@H](CCCCN)C(=O)O)[C@@H](C)O)NC(=O)[C@H](Cc4c[nH]cn4)NC(=O)[C@H](CSSC[C@H](NC(=O)[C@H](CCC(N)=O)NC(=O)[C@H](CCCNC(=N)N)NC(=O)[C@H](CO)NC1=O)C(=O)N[C@@H](CC(C)C)C(=O)N[C@@H](CCC(=O)O)C(=O)N1CCC[C@H]1C(=O)N3)NC(=O)[C@H](CCCCN)NC(=O)CNC(=O)[C@H](CC(N)=O)NC(=O)[C@H](CCSC)NC2=O [G22Nal] (H-GVIINVKCKISRQCLEPCKKA[1Nal]MRFGKCMNGKCHCTPK-OH; disulfide 8-28, 14-33, 18-35)",> 3.33 nM,0.426 nM
"CC[C@H](C)[C@@H]1NC(=O)[C@H](CCCCN)NC(=O)[C@@H](NC(=O)[C@H](CCCCN)NC(=O)[C@@H](NC(=O)[C@H](CC(N)=O)NC(=O)[C@@H](NC(=O)[C@@H](NC(=O)[C@@H](NC(=O)CN)C(C)C)[C@@H](C)CC)[C@@H](C)CC)C(C)C)CSSC[C@@H]2NC(=O)[C@H](CCCCN)NC(=O)[C@H](Cc3cccc4ccccc34)NC(=O)[C@H](Cc3ccccc3)NC(=O)[C@H](CCCNC(=N)N)NC(=O)[C@H](CCSC)NC(=O)CNC(=O)[C@H](C)NC(=O)[C@H](CCCCN)NC(=O)[C@H](CCCCN)NC(=O)[C@@H]3CSSC[C@@H](C(=O)N[C@H](C(=O)N4CCC[C@H]4C(=O)N[C@@H](CCCCN)C(=O)O)[C@@H](C)O)NC(=O)[C@H](Cc4c[nH]cn4)NC(=O)[C@H](CSSC[C@H](NC(=O)[C@H](CCC(N)=O)NC(=O)[C@H](CCCNC(=N)N)NC(=O)[C@H](CO)NC1=O)C(=O)N[C@@H](CC(C)C)C(=O)N[C@@H](CCC(=O)O)C(=O)N1CCC[C@H]1C(=O)N3)NC(=O)[C@H](CCCCN)NC(=O)CNC(=O)[C@H](CC(N)=O)NC(=O)[C@H](CCSC)NC2=O [G26Nal] (H-GVIINVKCKISRQCLEPCKKAGMRF[1Nal]KCMNGKCHCTPK-OH; disulfide 8-28, 14-33, 18-35)",> 3.33 nM,1.57 nM
"CC[C@H](C)[C@@H]1NC(=O)[C@H](CCCCN)NC(=O)[C@@H](NC(=O)[C@H](CCCCN)NC(=O)[C@@H](NC(=O)[C@H](CC(N)=O)NC(=O)[C@@H](NC(=O)[C@@H](NC(=O)[C@@H](NC(=O)CN)C(C)C)[C@@H](C)CC)[C@@H](C)CC)C(C)C)CSSC[C@@H]2NC(=O)[C@H](CCCCN)NC(=O)CNC(=O)[C@H](Cc3ccccc3)NC(=O)[C@H](CCCNC(=N)N)NC(=O)[C@H](CCSC)NC(=O)CNC(=O)[C@H](C)NC(=O)[C@H](CCCCN)NC(=O)[C@H](CCCCN)NC(=O)[C@@H]3CSSC[C@@H](C(=O)N[C@H](C(=O)N4CCC[C@H]4C(=O)N[C@@H](CCCCN)C(=O)O)[C@@H](C)O)NC(=O)[C@H](Cc4c[nH]cn4)NC(=O)[C@H](CSSC[C@H](NC(=O)[C@H](CCC(N)=O)NC(=O)[C@H](CCCNC(=N)N)NC(=O)[C@H](CO)NC1=O)C(=O)N[C@@H](CC(C)C)C(=O)N[C@@H](CCC(=O)O)C(=O)N1CCC[C@H]1C(=O)N3)NC(=O)[C@H](CCCCN)NC(=O)[C@H](Cc1cccc3ccccc13)NC(=O)[C@H](CC(N)=O)NC(=O)[C@H](CCSC)NC2=O [G31Nal] (H-GVIINVKCKISRQCLEPCKKAGMRFGKCMN[1Nal]KCHCTPK-OH; disulfide 8-28, 14-33, 18-35)",0.0338 nM,< 0.00152 nM
"CC[C@H](C)[C@@H]1NC(=O)[C@H](CCCCN)NC(=O)[C@@H](NC(=O)[C@H](CCCCN)NC(=O)[C@@H](NC(=O)[C@H](CC(N)=O)NC(=O)[C@@H](NC(=O)[C@H](Cc2cccc3ccccc23)NC(=O)[C@@H](NC(=O)CN)C(C)C)[C@@H](C)CC)C(C)C)CSSC[C@@H]2NC(=O)[C@H](CCCCN)NC(=O)CNC(=O)[C@H](Cc3ccccc3)NC(=O)[C@H](CCCNC(=N)N)NC(=O)[C@H](CCSC)NC(=O)CNC(=O)[C@H](C)NC(=O)[C@H](CCCCN)NC(=O)[C@H](CCCCN)NC(=O)[C@@H]3CSSC[C@@H](C(=O)N[C@H](C(=O)N4CCC[C@H]4C(=O)N[C@@H](CCCCN)C(=O)O)[C@@H](C)O)NC(=O)[C@H](Cc4c[nH]cn4)NC(=O)[C@H](CSSC[C@H](NC(=O)[C@H](CCC(N)=O)NC(=O)[C@H](CCCNC(=N)N)NC(=O)[C@H](CO)NC1=O)C(=O)N[C@@H](CC(C)C)C(=O)N[C@@H](CCC(=O)O)C(=O)N1CCC[C@H]1C(=O)N3)NC(=O)[C@H](CCCCN)NC(=O)CNC(=O)[C@H](CC(N)=O)NC(=O)[C@H](CCSC)NC2=O [I3Nal] (H-GV[1Nal]INVKCKISRQCLEPCKKAGMRFGKCMNGKCHCTPK-OH; disulfide 8-28, 14-33, 18-35)",0.0103 nM,0.00234 nM
"CC[C@H](C)[C@@H]1NC(=O)[C@H](CCCCN)NC(=O)[C@@H](NC(=O)[C@H](CCCCN)NC(=O)[C@@H](NC(=O)[C@H](CC(N)=O)NC(=O)[C@@H](NC(=O)[C@@H](NC(=O)[C@@H](NC(=O)CN)C(C)C)[C@@H](C)CC)[C@@H](C)CC)C(C)C)CSSC[C@@H]2NC(=O)[C@H](CCCCN)NC(=O)CNC(=O)[C@H](Cc3ccccc3)NC(=O)[C@H](CCCNC(=N)N)NC(=O)[C@H](CCSC)NC(=O)CNC(=O)[C@H](C)NC(=O)[C@H](CCCCN)NC(=O)[C@H](Cc3cccc4ccccc34)NC(=O)[C@@H]3CSSC[C@@H](C(=O)N[C@H](C(=O)N4CCC[C@H]4C(=O)N[C@@H](CCCCN)C(=O)O)[C@@H](C)O)NC(=O)[C@H](Cc4c[nH]cn4)NC(=O)[C@H](CSSC[C@H](NC(=O)[C@H](CCC(N)=O)NC(=O)[C@H](CCCNC(=N)N)NC(=O)[C@H](CO)NC1=O)C(=O)N[C@@H](CC(C)C)C(=O)N[C@@H](CCC(=O)O)C(=O)N1CCC[C@H]1C(=O)N3)NC(=O)[C@H](CCCCN)NC(=O)CNC(=O)[C@H](CC(N)=O)NC(=O)[C@H](CCSC)NC2=O [K19Nal] (H-GVIINVKCKISRQCLEPC[1Nal]KAGMRFGKCMNGKCHCTPK-OH; disulfide 8-28, 14-33, 18-35)",0.0172 nM,< 0.00152 nM
"CC[C@H](C)[C@@H]1NC(=O)[C@H](CCCCN)NC(=O)[C@@H](NC(=O)[C@H](CCCCN)NC(=O)[C@@H](NC(=O)[C@H](CC(N)=O)NC(=O)[C@@H](NC(=O)[C@@H](NC(=O)[C@@H](NC(=O)CN)C(C)C)[C@@H](C)CC)[C@@H](C)CC)C(C)C)CSSC[C@@H]2NC(=O)[C@H](CCCCN)NC(=O)CNC(=O)[C@H](Cc3ccccc3)NC(=O)[C@H](CCCNC(=N)N)NC(=O)[C@H](CCSC)NC(=O)CNC(=O)[C@H](C)NC(=O)[C@H](Cc3cccc4ccccc34)NC(=O)[C@H](CCCCN)NC(=O)[C@@H]3CSSC[C@@H](C(=O)N[C@H](C(=O)N4CCC[C@H]4C(=O)N[C@@H](CCCCN)C(=O)O)[C@@H](C)O)NC(=O)[C@H](Cc4c[nH]cn4)NC(=O)[C@H](CSSC[C@H](NC(=O)[C@H](CCC(N)=O)NC(=O)[C@H](CCCNC(=N)N)NC(=O)[C@H](CO)NC1=O)C(=O)N[C@@H](CC(C)C)C(=O)N[C@@H](CCC(=O)O)C(=O)N1CCC[C@H]1C(=O)N3)NC(=O)[C@H](CCCCN)NC(=O)CNC(=O)[C@H](CC(N)=O)NC(=O)[C@H](CCSC)NC2=O [K20Nal] (H-GVIINVKCKISRQCLEPCK[1Nal]AGMRFGKCMNGKCHCTPK-OH; disulfide 8-28, 14-33, 18-35)",0.0135 nM,< 0.00152 nM
"CC[C@H](C)[C@@H]1NC(=O)[C@H](CCCCN)NC(=O)[C@@H](NC(=O)[C@H](CCCCN)NC(=O)[C@@H](NC(=O)[C@H](CC(N)=O)NC(=O)[C@@H](NC(=O)[C@@H](NC(=O)[C@@H](NC(=O)CN)C(C)C)[C@@H](C)CC)[C@@H](C)CC)C(C)C)CSSC[C@@H]2NC(=O)[C@H](CCCCN)NC(=O)CNC(=O)[C@H](Cc3ccccc3)NC(=O)[C@H](CCCNC(=N)N)NC(=O)[C@H](Cc3cccc4ccccc34)NC(=O)CNC(=O)[C@H](C)NC(=O)[C@H](CCCCN)NC(=O)[C@H](CCCCN)NC(=O)[C@@H]3CSSC[C@@H](C(=O)N[C@H](C(=O)N4CCC[C@H]4C(=O)N[C@@H](CCCCN)C(=O)O)[C@@H](C)O)NC(=O)[C@H](Cc4c[nH]cn4)NC(=O)[C@H](CSSC[C@H](NC(=O)[C@H](CCC(N)=O)NC(=O)[C@H](CCCNC(=N)N)NC(=O)[C@H](CO)NC1=O)C(=O)N[C@@H](CC(C)C)C(=O)N[C@@H](CCC(=O)O)C(=O)N1CCC[C@H]1C(=O)N3)NC(=O)[C@H](CCCCN)NC(=O)CNC(=O)[C@H](CC(N)=O)NC(=O)[C@H](CCSC)NC2=O [M23Nal] (H-GVIINVKCKISRQCLEPCKKAG[1Nal]RFGKCMNGKCHCTPK-OH; disulfide 8-28, 14-33, 18-35)",0.036 nM,0.0644 nM
"CC[C@H](C)[C@@H]1NC(=O)[C@H](CCCCN)NC(=O)[C@@H](NC(=O)[C@H](CCCCN)NC(=O)[C@@H](NC(=O)[C@H](CC(N)=O)NC(=O)[C@@H](NC(=O)[C@@H](NC(=O)[C@@H](NC(=O)CN)C(C)C)[C@@H](C)CC)[C@@H](C)CC)C(C)C)CSSC[C@@H]2NC(=O)[C@H](CCCCN)NC(=O)CNC(=O)[C@H](Cc3ccccc3)NC(=O)[C@H](CCCNC(=N)N)NC(=O)[C@H](CCSC)NC(=O)CNC(=O)[C@H](C)NC(=O)[C@H](CCCCN)NC(=O)[C@H](CCCCN)NC(=O)[C@@H]3CSSC[C@@H](C(=O)N[C@H](C(=O)N4CCC[C@H]4C(=O)N[C@@H](CCCCN)C(=O)O)[C@@H](C)O)NC(=O)[C@H](Cc4c[nH]cn4)NC(=O)[C@H](CSSC[C@H](NC(=O)[C@H](CCC(N)=O)NC(=O)[C@H](CCCNC(=N)N)NC(=O)[C@H](CO)NC1=O)C(=O)N[C@@H](CC(C)C)C(=O)N[C@@H](CCC(=O)O)C(=O)N1CCC[C@H]1C(=O)N3)NC(=O)[C@H](CCCCN)NC(=O)CNC(=O)[C@H](CC(N)=O)NC(=O)[C@H](Cc1cccc3ccccc13)NC2=O [M29Nal] (H-GVIINVKCKISRQCLEPCKKAGMRFGKC[1Nal]NGKCHCTPK-OH; disulfide 8-28, 14-33, 18-35)",0.0935 nM,0.0469 nM
